Laboratory results as given in PMC11079024, “Identification of a family of species-selective complex I inhibitors as potential anthelmintics” (Nature Communications, 2024).
Where “and” joins values, the source holds several entries; their conditions need not be identical. Equal values may be shown once. Read-outs that look alike come from different tables or passages of the source.

Columns and labels:
[1] = test system: C. elegans complex III (decylubiquinol-cytochrome C reductase); test: In vitro complex III activity assay, C. elegans mitochondria; type: biochemical, Caenorhabditis elegans; details: for % Activity Complex III: 100 µM compound, relative to solvent control, mean (SEM); for Percent in vitro activity, Complex III (single replicate Rep1-Rep4) / Percent in vitro activity, Complex III (Mean): 100 μM of NPD compound, C. elegans mitochondria; for Percent in vitro activity, Complex III (single replicate Rep1-Rep4): individual biological replicates; for Percent in vitro activity, Complex III (Mean): mean of four biological replicates
Method: (§1) Mitochondria were isolated from the following free-living nematode strains: C. elegans—N2, CB3474, ECA882, ECA917, ECA1075, ECA1080; C. briggsae—AF16; P. pacificus—PS312; and P. hermaphrodita—B178. With the exception of the P. hermaphrodita strain B178, adult worms of each strain were grown in bulk through liquid culture to obtain mitochondria in sufficient quantities. Due to poor growth in liquid media, mixed stage populations of P. hermaphrodita were washed off and collected from NGM plates seeded with OP50. The isolation of mitochondria from all free-living nematode strains followed the protocol previously outlined in Burns et al.[24]. In brief, a 1 L saturated culture of E. coli HB101 was concentrated 20-fold in 50 mL complete S-medium. ~500,000 L1 worms synchronized from an embryo preparation performed the day prior were added to the S-media/HB101 suspension and grown to adulthood over the course of 3.5 days at 20 °C with shaking at 165 rpm. Following growth, worms were collected in 10 ×15 mL conical tubes and washed 7 times in M9 buffer. Worm suspensions were then combined into a single 15 mL conical tube and diluted to a final volume of 15 mL with M9 buffer. 1 mL aliquots of worm suspension were then distributed to 15 × 1.5 mL screw-cap microcentrifuge tubes and were pelleted at 500 g for 1 min. Excess M9 was aspirated without disturbing the worm pellet. 600 μL ice-cold isolate buffer A (250 mM sucrose, 10 mM Tris (pH 7.5), 1 mM EDTA, 1 mM PMSF (freshly prepared)) and 300 μL cold glass beads were then added to each tube. Tubes were incubated on ice for 10 min, and the worms were then lysed by bead beating (6 x 30 s, with 1 min cooling intervals). Tubes containing worm lysate were centrifuged at 1,000 g for 10 min at 4 °C and the supernatant was transferred to 15 new microcentrifuge tubes on ice. The tubes were centrifuged a second time at 1,000 g for 10 min at 4 °C and the supernatant was once again transferred to 15 new microcentrifuge tubes on ice. These tubes were then centrifuged at 16,000 g for 10 min at 4 °C. The resulting mitochondrial pellet was washed twice by re-suspension in 300 μL of ice-cold isolate buffer B (250 mM sucrose, 10 mM Tris (pH 7.5), 1 mM EDTA). Following the final wash, isolation buffer was aspirated from each tube and the pellets were flash-frozen in ethanol/dry ice and stored at −80 °C until needed.
(§2) The enzymatic activities of individual ETC complexes (I-IV) were assessed spectrophotometrically in isolated mitochondria using a Varioskan LUX Multimode plate reader (ThermoFisher Scientific). Mitochondrial pellets previously isolated were thawed on ice and resuspended in ice-cold isolation buffer (250 mM sucrose, 10 mM Tris (pH 7.5), 1 mM EDTA). The BCA assay (Walker, 1994) was used to quantify the protein concentration of mitochondria suspensions; solutions were diluted to a concentration of 0.2 mg/mL for use in all assays. For the complex I assay, mitochondria pellets were freeze-thawed on ice three times to increase enzyme accessibility. […] 20 μL mitochondria suspension was then added/mixed with a pipette to initiate the reaction. Immediately following the addition of mitochondria, absorbance was measured (complex I and II: 600 nm; complex III and IV: 550 nm) in 30 s intervals over 15 min. Enzymatic activity was determined in each reaction by plotting absorbance versus time and calculating the slope of the curve during the initial linear phase of the reaction. […] Percent activity of each complex was calculated by dividing the enzyme-specific activity of each well by the enzyme-specific activity of the corresponding solvent controls.
Antimycin A-sensitive complex III (decylubiquinol-cytochrome C […]) activity was determined by measuring the reduction of cytochrome C (CytC) as optimized in Luo et al.[59]. Decylubiquinol for complex III assays was prepared fresh as described in Janssen and Boyle, 2019[60].

HEK293 cells = details: for HEK293 viability: individual replicate (Rep); for CC50: read-out: HEK293 Cell Viability Assay LC50, 2 days exposure
[2] = molecular target: C. elegans (N2) complex I (NADH:ubiquinone oxidoreductase) (Caenorhabditis elegans, UniProt P24887+Q93873+Q94360); test: biochemical; type: biochemical; details: for % Activity Complex I: 100 µM compound, relative to solvent control, mean (SEM); for Percent in vitro activity, Complex I (single replicate Rep1-Rep4) / Percent in vitro activity, Complex I (Mean): 100 μM of NPD compound, C. elegans mitochondria; for Percent in vitro activity, Complex I (single replicate Rep1-Rep4): individual biological replicates; for Percent in vitro activity, Complex I (Mean): mean of four biological replicates
Sequence of C. elegans (N2) complex I (NADH:ubiquinone oxidoreductase) (Q94360 17-199): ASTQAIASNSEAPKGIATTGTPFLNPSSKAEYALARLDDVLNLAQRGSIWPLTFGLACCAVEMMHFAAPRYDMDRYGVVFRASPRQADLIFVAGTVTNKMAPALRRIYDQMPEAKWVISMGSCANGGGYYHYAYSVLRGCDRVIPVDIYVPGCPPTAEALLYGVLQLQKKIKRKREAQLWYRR
Sequence of C. elegans (N2) complex I (NADH:ubiquinone oxidoreductase) (P24887 whole entry): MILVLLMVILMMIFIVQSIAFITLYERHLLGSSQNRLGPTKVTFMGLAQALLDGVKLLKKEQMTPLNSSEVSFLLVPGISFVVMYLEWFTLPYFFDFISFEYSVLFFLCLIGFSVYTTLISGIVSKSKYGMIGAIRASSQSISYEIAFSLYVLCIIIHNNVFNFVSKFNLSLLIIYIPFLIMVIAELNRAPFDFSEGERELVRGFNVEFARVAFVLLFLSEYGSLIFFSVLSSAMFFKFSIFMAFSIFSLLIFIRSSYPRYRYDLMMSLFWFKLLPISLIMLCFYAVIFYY
Sequence of C. elegans (N2) complex I (NADH:ubiquinone oxidoreductase) (Q93873 31-482): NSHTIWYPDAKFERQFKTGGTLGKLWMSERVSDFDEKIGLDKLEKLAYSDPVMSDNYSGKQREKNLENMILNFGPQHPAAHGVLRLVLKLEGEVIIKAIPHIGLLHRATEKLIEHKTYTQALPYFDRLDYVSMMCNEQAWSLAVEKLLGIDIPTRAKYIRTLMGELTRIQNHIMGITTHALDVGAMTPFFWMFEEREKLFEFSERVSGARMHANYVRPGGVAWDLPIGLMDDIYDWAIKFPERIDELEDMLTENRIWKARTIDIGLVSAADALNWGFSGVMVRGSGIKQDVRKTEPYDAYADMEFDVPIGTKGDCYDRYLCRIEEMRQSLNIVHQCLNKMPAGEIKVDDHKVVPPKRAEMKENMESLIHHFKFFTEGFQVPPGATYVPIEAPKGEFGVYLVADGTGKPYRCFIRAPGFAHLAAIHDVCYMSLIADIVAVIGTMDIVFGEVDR
How it was run: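 Compounds were tested against freeze-thawed isolated mitochondria (0.2 mg/mL protein). NADH:decylubiquinone activity was monitored via DCIP absorbance at 600 nm, and the initial linear slope was normalised to solvent controls.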

L1 wild-type C. elegans = details: for LC50: caenorhabditis elegans; for C. elegans L1 relative motility, 3-hour post 200 µM KCN dilution: individual replicate (Rep)
C. elegans = C. elegans chemical screens of RIKEN NPD libraries at 50 μM (hit identification in KCN survival and development/viability assays); type: cell-based, Caenorhabditis elegans; details: screened at 50 μM in triplicate; hit = modified z-score < −3; KCN = KCN survival assay, Dev. & Viability = development/viability assay
[3] = molecular target: C. elegans complex II (succinate dehydrogenase) (Caenorhabditis elegans, UniProt O62215+P41956+Q09545); test: In vitro complex II activity assay, C. elegans mitochondria; type: biochemical; details: for % Activity Complex II: 100 µM compound, relative to solvent control, mean (SEM); for Percent in vitro activity, Complex II (single replicate Rep1-Rep4) / Percent in vitro activity, Complex II (Mean): 100 μM of NPD compound, C. elegans mitochondria; for Percent in vitro activity, Complex II (single replicate Rep1-Rep4): individual biological replicates; for Percent in vitro activity, Complex II (Mean): mean of four biological replicates
Sequence of C. elegans complex II (succinate dehydrogenase) (P41956 30-182): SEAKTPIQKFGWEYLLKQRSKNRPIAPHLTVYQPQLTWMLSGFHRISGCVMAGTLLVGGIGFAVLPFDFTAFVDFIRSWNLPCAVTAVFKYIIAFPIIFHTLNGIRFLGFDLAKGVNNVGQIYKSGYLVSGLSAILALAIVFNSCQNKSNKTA
Sequence of C. elegans complex II (succinate dehydrogenase) (Q09545 22-298): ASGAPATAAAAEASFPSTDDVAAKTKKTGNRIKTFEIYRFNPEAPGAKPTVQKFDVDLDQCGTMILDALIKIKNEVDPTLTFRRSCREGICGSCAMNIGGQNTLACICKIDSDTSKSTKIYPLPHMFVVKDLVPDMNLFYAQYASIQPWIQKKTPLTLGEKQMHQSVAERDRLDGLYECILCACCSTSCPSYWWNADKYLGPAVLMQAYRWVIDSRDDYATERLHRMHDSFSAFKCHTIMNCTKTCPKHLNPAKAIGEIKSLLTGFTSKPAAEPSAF
Sequence of C. elegans complex II (succinate dehydrogenase) (Q09508 32-646, further chain): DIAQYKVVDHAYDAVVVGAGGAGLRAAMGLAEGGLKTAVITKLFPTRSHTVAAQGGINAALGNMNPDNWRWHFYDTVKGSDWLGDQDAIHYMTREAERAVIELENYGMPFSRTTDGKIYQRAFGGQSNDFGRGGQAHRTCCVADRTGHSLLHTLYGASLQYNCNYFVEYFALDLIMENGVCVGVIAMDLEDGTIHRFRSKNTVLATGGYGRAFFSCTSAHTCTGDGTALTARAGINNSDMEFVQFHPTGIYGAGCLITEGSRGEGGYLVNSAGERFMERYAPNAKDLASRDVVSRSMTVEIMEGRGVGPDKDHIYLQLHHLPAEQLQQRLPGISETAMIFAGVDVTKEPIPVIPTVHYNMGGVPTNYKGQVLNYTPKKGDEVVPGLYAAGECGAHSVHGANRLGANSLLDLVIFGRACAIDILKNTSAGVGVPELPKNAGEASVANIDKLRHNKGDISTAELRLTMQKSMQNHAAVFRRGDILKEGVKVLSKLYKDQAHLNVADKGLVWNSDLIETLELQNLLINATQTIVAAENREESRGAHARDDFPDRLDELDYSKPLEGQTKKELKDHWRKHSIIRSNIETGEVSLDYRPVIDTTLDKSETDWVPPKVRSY
Sequence of C. elegans complex II (succinate dehydrogenase) (O62215 31-145): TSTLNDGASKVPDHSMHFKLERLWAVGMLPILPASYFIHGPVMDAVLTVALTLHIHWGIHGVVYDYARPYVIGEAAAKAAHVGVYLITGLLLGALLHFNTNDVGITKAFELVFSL
How it was run: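 Mitochondria isolated from adult C. elegans were diluted to 0.2 mg/mL protein and assayed for complex II by the DCIP-coupled method. A600 was read every 30 s over 15 min, with initial linear slope expressed as percent of solvent control. Screening was at 100 μM (≥3 biological replicates), followed by dose-response.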

[4] = test system: C. elegans complex IV (cytochrome C oxidase); test: In vitro complex IV activity assay, C. elegans mitochondria; type: biochemical, Caenorhabditis elegans; details: for % Activity Complex IV: 100 µM compound, relative to solvent control, mean (SEM); for Percent in vitro activity, Complex IV (single replicate Rep1-Rep4) / Percent in vitro activity, Complex IV (Mean): 100 μM of NPD compound, C. elegans mitochondria; for Percent in vitro activity, Complex IV (single replicate Rep1-Rep4): individual biological replicates; for Percent in vitro activity, Complex IV (Mean): mean of four biological replicates
Method: as §1, §2
Complex IV (cytochrome C oxidase) activity was determined by following the oxidation of CytC in the protocol outlined by Janssen and Boyle, 2019[60]. Reduced CytC was prepared fresh by adding 1 μL increments of 1 M dithiothreitol to a 1 mM solution of CytC and vortexing. A colour change from brown to orange/pink signals when CytC has been reduced.

SMILES | % Activity Complex III [1] | Percent in vitro activity, Complex III (single replicate Rep1-Rep4) [1] | Percent in vitro activity, Complex III (Mean) [1] [%] | CC50 (HEK293 cells) [µM] | % Activity Complex I [2] | Percent in vitro activity, Complex I (single replicate Rep1-Rep4) [2] | Percent in vitro activity, Complex I (Mean) [2] [%] | LC50 (L1 wild-type C. elegans) [µM] | Hit Type (C. elegans) | % Activity Complex II [3] | Percent in vitro activity, Complex II (single replicate Rep1-Rep4) [3] | Percent in vitro activity, Complex II (Mean) [3] [%] | % Activity Complex IV [4] | Percent in vitro activity, Complex IV (single replicate Rep1-Rep4) [4] | Percent in vitro activity, Complex IV (Mean) [4] [%] | also measured
COc1ccc(-c2cc(=Nc3ccccc3N)c3ccccc3o2)cc1 [NPD6380] | 107.06 (1.36) % | 109.305% and 109.700% and 110.292% and 98.948% | 107.062 | 29.2 | 86.43 (2.27) % | 77.779% and 82.402% and 98.876% and 86.642% | 86.425 | 14.3 | KCN | 102.27 (2.46) % | 113.834% and 92.410% and 96.068% and 106.772% | 102.271 | 115.38 (4.42) % | 108.559% and 111.425% and 100.551% and 140.996% | 115.383 | HEK293 viability (HEK293 cells; dose 0.8 µM): 0.998; HEK293 viability (HEK293 cells; dose 3.1 µM): 0.945 and 0.951; HEK293 viability (HEK293 cells; dose 6.3 µM): 0.687 and 0.797; HEK293 viability (HEK293 cells; dose 12.5 µM): 0.542 and 0.584; HEK293 viability (HEK293 cells; dose 25 µM): 0.441 and 0.466; HEK293 viability (HEK293 cells; dose 50 µM): 0.431 and 0.445; C. elegans L1 relative motility, 3-hour post 200 µM KCN dilution (L1 wild-type C. elegans; dose 0.4 µM): 1.243 and 1.189; C. elegans L1 relative motility, 3-hour post 200 µM KCN dilution (L1 wild-type C. elegans; dose 0.8 µM): 1.074 and 1.086; C. elegans L1 relative motility, 3-hour post 200 µM KCN dilution (L1 wild-type C. elegans; dose 3.1 µM): 1.020 and 1.053; C. elegans L1 relative motility, 3-hour post 200 µM KCN dilution (L1 wild-type C. elegans; dose 6.3 µM): 1.040 and 1.101; C. elegans L1 relative motility, 3-hour post 200 µM KCN dilution (L1 wild-type C. elegans; dose 12.5 µM): 0.696 and 0.688; C. elegans L1 relative motility, 3-hour post 200 µM KCN dilution (L1 wild-type C. elegans; dose 25 µM): 0.136 and 0.141; C. elegans L1 relative motility, 3-hour post 200 µM KCN dilution (L1 wild-type C. elegans; dose 50 µM): 0.030 and 0.035
COc1ccc(N=c2cc(-c3ccc(OC)cc3)oc3ccc(O)cc23)cc1 [NPD8034] | 95.08 (1.51) % | 95.115% and 96.990% and 101.326% and 86.891% | 95.080 | 11.2 | 99.30 (2.57) % | 99.316% and 113.812% and 92.579% and 91.475% | 99.295 | 12 | KCN | 89.02 (4.77) % | 117.368% and 83.101% and 77.239% and 78.358% | 89.016 | 96.04 (2.78) % | 88.996% and 91.859% and 90.669% and 112.640% | 96.041 | 
Cc1cc(O)c(C(=O)/C=C/c2ccccc2)c(=O)o1 [NPD8366] | 76.74 (1.10) % | 80.994% and 79.847% and 74.350% and 71.759% | 76.737 | 19.7 | 102.66 (1.57) % | 109.574% and 101.002% and 105.233% and 94.820% | 102.657 | 11.6 | KCN | 86.41 (3.37) % | 86.839% and 91.030% and 67.920% and 99.847% | 86.409 | 97.72 (2.77) % | 88.563% and 105.997% and 87.809% and 108.514% | 97.721 | 
